For one test, the system named is Tobacco suspension cells. Put plainly: Plant cell culture alkalinization assay. The format is cell-based. The procedure: Plant Cell Culture Alkalinization Assay: Tobacco suspension cells were maintained in MS media. The media was adjusted to pH 5.6 with KOH. Three ml aliquots of one week old cultures were transferred into 35 ml of media in 125 ml flasks and placed on an orbital shaker at 160 rpm in the dark for growth. Cells were used for assay 3-5 days after transfer (cell density was approximately 0.5 to 1.5×10^6 cells/ml). One ml of cells was aliquoted into each well of 24-well cell culture cluster plates (Costar, number 3527, Corning Incorporated, Corning, N.Y.) and allowed to equilibrate on an orbital shaker at 160 rpm for 1 hr. Aliquots (1 to 10 μl) of fractions to be tested were added to the cells and the increasing pH change of the medium (medium alkalinization) was detected with time using an Orion Model EA940 pH meter with an Orion semi-micro pH electrode (Catalog number 8103BN, Orion, Beverly, Mass.).

The subject of test [1] is liquid tomato cell culture. Description: Alkalinization of a liquid tomato cell culture. The format is cell-based.
Another test concerns tomato apical meristems. Put plainly: Growth of excised tomato apical meristems in liquid culture. The class given is cell-based, Lycopersicon esculentum. As to conditions: for growth of isolated tomato apical meristems: 100 nM peptide in liquid media, evaluated on the 16th day, compared with control peptide. The protocol:
Tomato plants (Lycopersicon esculentum cv. Castlemart) were grown in a growth chamber with 17 hours of light (300 μmol m^−2s^−1) per day at 28° C. and seven hour nights at 18° C. Apical meristems were excised from shoot tips of two week old tomato plants. Shoot tips (1-2 cm long) were surface sterilized using 70% ethanol solution for 20-30 seconds, followed by a 20 minute incubation in a 1.5% (v/v) commercial bleach solution. Shoot tips were washed once in sterilized water after the ethanol treatment, and four times after bleaching. Apical meristems (including meristematic tissue, dome, with a leaf primordium) were carefully isolated under a stereoscope.
Isolated meristems were immediately inoculated into a liquid media (MS salts and vitamin mixture powder (Life Technologies) and 20 g/L of sucrose) containing either tomato RALF (100 nM) (SEQ ID NO: 4), or a control peptide (100 nM) that was not capable of stimulating meristem growth. Four meristems were inoculated in a 125 mL Erlenmeyer flask containing 10 mL of media, and flasks were gently shaken at 60 rpm. Sixteen meristems were tested for each treatment in four separate flasks. The liquid media was replaced with fresh media on the 5th, 12th and 14th days of the experiment. The experiment was evaluated and terminated on the 16th day.

Consider “ATKKYISYGALQKNSVPCSRRGASYYNCKPGAQANPYSRGCSAITRCRS (listed as Nicotiana tabacum) [tobacco RALF polypeptide, approximately 5 kDa polypeptide isolated from tobacco leaves]”, for which the “alkalinization of the medium of the liquid plant cell culture (pH change)” value with Tobacco suspension cells is given as “rapidly induced alkalinization”.

As to “ATKKYISYGALQKNSVPCSRRGASYYNCKPGAQANPYTRGCSAITRCRS (listed as Lycopersicon esculentum) [tomato RALF polypeptide (SEQ ID NO: 4), chemically synthesized tomato RALF polypeptide]”, the “alkalinization of a liquid tomato cell culture” value in test [1] was “induce alkalinization”. Besides, the “growth of isolated tomato apical meristems” value with tomato apical meristems is recorded as “stimulates the growth”; with tomato apical meristems (listed as tomato RALF (SEQ ID NO: 4)) it was “stimulated growth”. Further, the “rate of meristem tissue growth in the presence versus the absence of the polypeptide” value in the test on tomato apical meristems (experiments of Example 3) is “at least twice as fast”.

The record behind these values is patent publication US20030217389A1, “Novel peptides and methods of use” (priority 2002, published 2003).
